Results: patent US12303512B2, “Therapeutically active compounds and their methods of use” (Servier Pharmaceuticals LLC, priority 2021, dated 2025)

Experiment: Absorption, distribution, metabolism and excretion of oral [14C]vorasidenib in humans; metabolite profiling in plasma, urine, feces
Settings: human, in vivo
Procedure: Metabolite profiling and identification of vorasidenib (AG-881) was performed in plasma, urine, and fecal samples collected from five healthy subjects after a single 50-mg (100 μCi) oral dose of [14C]AG-881 and concomitant intravenous microdose of [^13C3 ^15N3]AG-881.
Plasma samples collected at selected time points from 0 through 336 hour postdose were pooled across subjects to generate 0- to 72 and 96-336-hour area under the concentration-time curve (AUC)-representative samples. Urine and feces samples were pooled by subject to generate individual urine and fecal pools. Plasma, urine, and feces samples were extracted, as appropriate, the extracts were profiled using high performance liquid chromatography (HPLC), and metabolites were identified by liquid chromatography-mass spectrometry (LC-MS and/or LC-MS/MS) analysis and by comparison of retention time with reference standards, when available.
Due to low radioactivity in samples, plasma metabolite profiling was performed by using accelerator mass spectrometry (AMS). In plasma, AG-881 was accounted for 66.24 and 29.47% of the total radioactivity in the pooled AUC0-72 h and […] plasma, respectively. The most abundant radioactive peak (P7; M458) represented 0.10 and 43.92% of total radioactivity for pooled AUC0-72 and AUC96-336 h plasma, respectively. All other radioactive peaks accounted for less than 6% of the total plasma radioactivity and were not identified.

radioactivity recovered in feces, % of the dose	unchanged parent detected in urine	radioactivity recovered in urine, % of the dose	SMILES
2-5 % of the dose			C[C@@H](Nc1nc(N[C@H](C)C(F)(F)F)nc(-c2cccc(SCC(N)C(=O)O)n2)n1)C(F)(F)F (some centres unmarked) [Compound M499]
55.5 % of the dose	no AG-881 was detected		C[C@@H](Nc1nc(N[C@H](C)C(F)(F)F)nc(-c2cccc(Cl)n2)n1)C(F)(F)F [AG-881, 6-(6-chloropyridin-2-yl)-N2, N4-bis((R)-1,1,1-trifluoropropan-2-yl)-1,3,5-triazine-2,4-diamine, reference compound]
		2.54 % of the dose	CS(=O)(=O)c1cccc(-c2nc(N)nc(N)n2)n1 [Compound M266]
2-5 % of the dose			C[C@@H](Nc1nc(N[C@H](C)C(F)(F)F)nc(-c2cccc(S(=O)(=O)O)n2)n1)C(F)(F)F [Compound M460-1]
